# Results taken from patent US20140243332A1, “METHODS OF TREATING CANCERS CHARACTERIZED BY ABERRENT ROS1 ACTIVITY” (Oregon Health & Science University, priority 2013, published 2014).
# How the values were obtained:
# [1] = established, reported in the literature; read-out: steady state maximum plasma concentration Cmax; cited from earlier work
# [2] = target: Ba/F3 CD74-ROS G2032R mutant cells (Homo sapiens, UniProt P08922, G2032R, cells depend on it); assay: Cell growth assay, Ba/F3 CD74-ROS G2032R; type: cell-based; details: 72 hour exposure, read-out: IC50 (the source's name)
# Excerpt: Data are shown as normalized to vehicle-treated cells. The values are means±SEM from three independent experiments performed in triplicate.
# [3] = target: FIG-ROS (Homo sapiens, UniProt P08922); assay: Immunoblot of NIH3T3 FIG-ROS lysates; type: cell-based; set-up: expressed in transfected cells; host or cells: Ba/F3 (A14) and NIH3T3 (A24), retroviral pMSCV-IRES-GFP; the other entry of the earlier key: GOPC (Q9HD26, Golgi-associated PDZ and coiled-coil motif-containing protein); details: NIH3T3 FIG-ROS cells, 1 hour, at lower doses than crizotinib
# Procedure: (§1) The parental Ba/F3 cell line was cultured in RPMI 1640 medium with 10% FBS, L-glutamine, penicillin/streptomycin and 15% WEHI-conditioned media. Ba/F3 cell lines were maintained at densities of 0.5×10^6 to 1.5×10^6 per ml of media. FIG-ROS and SLC-ROS Ba/F3 lines were created by infecting the parental Ba/F3 with retrovirus expressing either human FIG-ROS-S (indicated FIG-ROS herein) or SLC-ROS-S (indicated SLC-ROS herein). Stable transfectant lines were sorted for GFP expression on a FACS Aria® flow cytometer. Cells were counted daily using Guava ViaCount® reagent and Guava Personal Cell Analysis® flow cytometer. […] Early passage NIH3T3 cells were infected with retrovirus expressing either FIG-ROS or SLC-ROS and sorted for GFP expression as described above for Ba/F3 cells. HCC78 cells were cultured in RPMI 1640 medium with 10% FBS, L-glutamine, and penicillin/streptomycin. This media is referred to as RPMI-10% FBS herein.
# [4] = target: Ba/F3 FIG-ROS L1982F cells (Homo sapiens, UniProt P08922, L1982F, cells depend on it); assay: Cell viability assay, Ba/F3 FIG-ROS L1982F; type: cell-based; details: Table 3, Ba/F3 FIG-ROS L1982F; nM; read-out: IC50 (the source's name)
# Procedure: (§2) Cell lines were distributed in 96-well plates and incubated with the indicated concentrations of inhibitor for 72 hours. […] Ba/F3 cell lines were plated at 4×10^3 cells/well. HCC78 and mCC cell lines were plated at 1.5×10^3 cells/well. All cell types were seeded in a final volume of 80 microliters. A 20 microliter volume of five-fold concentrated inhibitor media was added. Cell proliferation was measured using a […] viability assay (CellTiter96 Aqueous One® Solution; Promega). A BioTek Synergy 2® plate reader was used to read the absorbance at 490 nm at 30 minutes and 1 hour after addition of MTS. To facilitate comparison between experiments, the raw MTS absorbance of vehicle (0.1% DMSO) treated cells was set to 1 and absorbance from inhibitor treated wells was normalized to the vehicle treated value. […] Data were normalized using Microsoft Excel® and further non-linear regression curve fit analysis of the normalized data for determination of IC50 was performed using Graphpad Prism® software.
# (§3) The FIG-ROS-S fusion gene was synthesized using the GeneArt® service. FIG-ROS-S is denoted as FIG-ROS herein.
# [5] = target: T1, Ba/F3 SLC-ROS cells (Homo sapiens, UniProt P08922); assay: Cell viability (MTS) assay, Ba/F3 SLC-ROS; type: cell-based; details: 72 hours, read-out: IC50 (the source's name)
# T1 construct: SLC-ROS-S (SLC-ROS) was cloned from cDNA made from HCC78 cells; fused on or other part: GFP is co-expressed from an IRES in pMIG and is not fused; O95436 (Sodium-dependent phosphate transport protein 2B)
# Procedure: as §1
# […]. The Ba/F3 parental line was also tested. (O'Dwyer M E and Druker B J, Lancet Oncology 1, 207-211 (2000); Walters D K et al, Cancer Cell 10, 65-75 (2006); and Heukamp L C et al, Science Translational Medicine 4, 141ra191 (2012); […].
# [6] = target: T1, Ba/F3 SLC-ROS cells; assay: Apoptosis induction (Annexin V / 7-AAD), Ba/F3 SLC-ROS; type: cell-based; details: 15 nM, 48 hours
# Procedure: FIG. 5A is a set of three bar graphs depicting the induction of apoptosis in Ba/F3 FIG-ROS, Ba/F3 SLC-ROS and Ba/F3 ALK F1174L cells after 48 hours of treatment with the indicated doses of the indicated compounds. The number of cells that were Annexin V and 7-AAD positive after inhibitor treatment was normalized to number of cells staining positive with these markers with vehicle treatment (basal). A minimum of 2000 cells were counted per condition. Rate of apoptosis is shown as fold over basal. Basal apoptosis in Ba/F3 FIG-ROS, Ba/F3 SLC-ROS and Ba/F3 ALK F1174 cells was 3.6%, 2.8% and 1.2% respectively.
# [7] = test system: NIH3T3 SLC-ROS cells; assay: Soft agar colony formation, NIH3T3 SLC-ROS; type: cell-based; details: at lower doses than crizotinib
# Excerpt: The bottom panels are bar graphs indicating the number of colonies formed from the plates depicted in the top panels. The values indicate average colony number±SEM from 4 independent wells.
# [8] = test system: HCC78 cells; assay: HCC78 cell migration (scratch gap closure); type: cell-based, human; details: 50 nM, 18 hours, FIG. 6A
# Procedure: FIG. 6A is a set of six images on the left and a bar graph on the right. The images at left are of a gap at 10 minutes and at 18 hours after ‘scratch’ of cells on a surface. […] The right panel is a bar graph depicting the percent of gap closure determined by measuring the length of a straight line drawn across the gap from imaging the same field of view at initiation of treatment and at 18 hours. Scale bar=200 μm
# [9] = target: Ba/F3 FIG-ROS E1935G cells (Homo sapiens, UniProt P08922, E1935G, cells depend on it); assay: Cell viability assay, Ba/F3 FIG-ROS E1935G; type: cell-based; details: Table 3, Ba/F3 FIG-ROS E1935G; nM; read-out: IC50 (the source's name)
# Procedure: as §2, §3
compound,measurement,setting,value
"COc1cc2c(Oc3ccc(NC(=O)C4(C(=O)Nc5ccc(F)cc5)CC4)cc3F)ccnc2cc1OCCCN1CCOCC1 [foretinib, N1′-[3-fluoro-4-[[6-methoxy-7-(3-morpholinopropoxy)-4-quinolyl]oxy]phenyl]-N1-(4-fluorophenyl)cyclopropane-1,1-dicarboxamide]",Cmax,[1],340 nM
same,GI50,[2],50 nM
same,FIG-ROS phosphorylation,[3],strongly suppressed
same,GI50,[4],15.3 nM
same,GI50,[5],10 nM
same,apoptosis induction,[6],induced apoptosis
same,anchorage-independent colony formation,[7],strongly suppressed
same,HCC78 cell migration,[8],more potently inhibited by foretinib than crizotinib
same,GI50,[9],6.6 nM
